{"source": "patent US20190054097A1", "about": "“COMPOSITIONS TARGETING SENESCENT CELLS AND THE USES THEREOF” (BioVentures, LLC, priority 2016, published 2019)", "key": {"NCI-H146 cancer cells": {"test_system": "NCI-H146 cancer cells", "assay": "Cancer cell viability by MTS, 72 hours", "assay_type": "cell-based", "method": "(§1) RS4; 11 and NCI-H146 cancer cells were incubated with vehicle or increasing concentrations of compounds of Formula (I) and Formula (II). At 72 hours post-treatment cell viability was measured by MTS and EC50 was calculated as a percentage of control cells treated with vehicle. Table 1 depicts the EC50 values of compounds of Formula (I) and Formula (II) against RS4; 11 and NCI-H146."}, "RS4; 11 cancer cells": {"test_system": "RS4; 11 cancer cells", "assay": "Cancer cell viability by MTS, 72 hours", "assay_type": "cell-based", "conditions": "11 cells", "method": "as §1"}, "[1]": {"test_system": "IR-induced senescent WI38 cells (IR-SC)", "assay": "Viability of IR-induced senescent WI38 cells, PI staining and flow cytometry, 72 hours", "assay_type": "cell-based", "conditions": "for EC50: IR-induced senescent WI38 cells, 72 hours, viable PI- cells as percentage of vehicle control; for Ratio NSC/SC: ratio of WI38 EC50 in normal cells to EC50 in IR-induced senescent cells", "method": "(§2) Normal WI38 (NSC) and IR-induced senescent WI38 cells (IR-SC) were incubated with vehicle or increasing concentrations of compounds of Formula (I) or Formula (II) for 72 hours. The cells were digested with 0.25% trypsin and 1 mM EDTA, and harvested in PBS containing 2% FBS. After incubation with propidium iodide (PI, 100 ng/ml) in PBS at room temperature for 1 minute, cells were centrifuged at 1,200 rpm for 6 minutes to remove PI and then resuspended in PBS containing 2% FBS for analysis using a flow cytometer. Viable cells (PI− cells) were analyzed by flow cytometry at a constant flow rate to count the number of cells and calculated as a percentage of control cells treated with vehicle. Table 1 depicts the EC50 values of the compounds of Formula (I) and compounds of Formula (II) against normal WI38 and IR-induced senescent WI38."}, "Normal WI38 (NSC)": {"test_system": "Normal WI38 (NSC)", "assay": "Viability of normal WI38 cells, PI staining and flow cytometry, 72 hours", "assay_type": "cell-based", "method": "as §2"}, "senescent cells": {"test_system": "senescent cells", "assay": "Cisplatin-induced peripheral neuropathy (CIPN) in p16-3MR transgenic mice, Von Frey assay and Hot Plate Analgesia Meter", "assay_type": "in vivo", "conditions": "GCV 25 mg/kg/day or ABT263 50 mg/kg/day i.p., 5 days per cycle, 2 cycles, FIG. 8-11", "method": "CIPN was induced in young adult male and female p16-3MR mice by intraperitoneal (i.p.) injection of cisplatin (Lake Zurich, Ill., USA) at 2.3 mg/kg/d for 5 days per cycle for 2 cycles with an interval of 5 days between the cycles. The induction of CIPN was measured by analyzing the mechanical sensitivity using the Von Frey assay the day before Cisplatin treatment and on various day after Cisplatin treatment. N=5-6 mice per group.\nMice were treated as described in FIG. 8. The induction of CIPN was measured by analyzing the sensitivity to thermal allodynia using the Hot Plate Analgesia Meter on various day after Cisplatin treatment. N=5-6 mice per group.\nTo determine the effect of senescent cells on the induction of CIPN, cisplatin-treated mice were administered with vehicle, ganciclovir (GCV) at 25 mg/kg/day for 5 days per cycle for 2 cycles with an interval of 17 days between the cycles, or ABT263 at 50 mg/kg/day for 5 days per cycle for 2 cycles with an interval of 17 days between the cycles by i.p. injection at the indicated times after cisplatin treatment. […] The induction of CIPN was measured by analyzing the mechanical sensitivity using the Von Frey assay (FIG. 8 and FIG. 9) and by analyzing the sensitivity to thermal allodynia using the Hot Plate Analgesia Meter (FIG. 10 and FIG. 11) the day before Cisplatin treatment and on various day after Cisplatin treatment."}, "[2]": {"conditions": "viable PI- cells as percentage of vehicle control"}, "[3]": {"conditions": "Homo sapiens, WI-38, viable PI- cells as percentage of vehicle control"}}, "note": "Read-outs that look alike come from different tables or passages of the source."}
{"smiles": "Cc1ncsc1-c1ccc(CNC(=O)[C@@H]2C[C@@H](O)CN2C(=O)[C@@H](NC(=O)COCCOCCOCc2cn(CCCC(=O)N3CCN(CC#Cc4ccc(OCCCc5sc(N6CCc7cccc(C(=O)Nc8nc9ccccc9s8)c7C6)nc5C(=O)O)c(F)c4)CC3)nn2)C(C)(C)C)cc1", "note": "[XZ-14455, 2-(8-(benzo[d]thiazol-2-ylcarbamoyl)-3,4-dihydroisoquinolin-2(1H)-yl)-5-(3-(2-fluoro-4-(3-(4-(4-(4-((S)-12-((2S,4R)-4-hydroxy-2-((4-(4-methylthiazol-5-14)benzyl)carbamoyl)pyrrolidine-1-carbonyl)-13,13-dimethyl-10-oxo-2,5,8-trioxa-11-azatetradecyl)-1H-1,2,3-triazol-1-yl)butanoyl)piperazin-1-yl)prop-1-yn-1-yl)phenoxy)propyl)thiazole-4-carboxylic acid]", "values": [{"measurement": "EC50", "setting": "NCI-H146 cancer cells", "result": "> 2", "unit": "µM"}, {"measurement": "EC50", "setting": "RS4; 11 cancer cells", "result": "> 2", "unit": "µM"}, {"measurement": "EC50", "setting": "[1]", "result": 1.47, "unit": "µM"}, {"measurement": "Ratio NSC/SC", "setting": "[1]", "result": 3.40}, {"measurement": "EC50", "setting": "Normal WI38 (NSC); [2]", "result": 5, "unit": "µM"}]}
{"smiles": "CC(C)(C)OC(=O)N1CCN(CC#Cc2ccc(OCCCc3sc(N4CCc5cccc(C(=O)Nc6nc7ccccc7s6)c5C4)nc3C(=O)O)c(F)c2)CC1", "note": "[XZ-13861]", "values": [{"measurement": "Selective inhibition of IR-SC WI38 cells versus normal WI38 cells", "setting": "[1]; FIG. 2A, FIG. 2B, dose dependent", "result": "selectively inhibits IR-SC WI38 cells but not normal WI38 cells in a dose-dependent manner"}, {"measurement": "EC50", "setting": "[1]", "result": 3.12, "unit": "µM"}, {"measurement": "EC50", "setting": "Normal WI38 (NSC); [2]", "result": 32.8, "unit": "µM"}]}
{"smiles": "CC1(C)CCC(c2ccc(Cl)cc2)=C(CN2CCN(c3ccc(C(=O)NS(=O)(=O)c4ccc(N[C@H](CCN5CCN(CCOCCOCCOCCNc6cccc7c6C(=O)N(C6CCC(=O)NC6=O)C7=O)CC5)CSc5ccccc5)c(S(=O)(=O)C(F)(F)F)c4)cc3)CC2)C1", "note": "(stereo partly drawn) [XZ-15418, 4-(4-((4′-chloro-4,4-dimethyl-3,4,5,6-tetrahydro-[1,1′-biphenyl]-2-yl)methyl)piperazin-1-yl)-N-((4-(((2R)-4-(4-(2-(2-(2-(2-((2-(2,6-dioxopiperidin-3-yl)-1,3-dioxoisoindolin-4-yl)amino)ethoxy)ethoxy)ethoxy)ethyl)piperazin-1-yl)-1-(phenylthio)butan-2-yl)amino)-3-((trifluoromethyl)sulfonyl)phenyl)sulfonyl)benzamide]", "values": [{"measurement": "EC50", "setting": "RS4; 11 cancer cells; Homo sapiens", "result": 0.0123, "unit": "µM"}, {"measurement": "EC50", "setting": "[1]; Homo sapiens, WI-38", "result": 0.172, "unit": "µM"}, {"measurement": "EC50", "setting": "Normal WI38 (NSC); [3]", "result": "> 10", "unit": "µM"}]}
{"smiles": "Nc1nc(O)c2ncn(COC(CO)CO)c2n1", "note": "[GCV, ganciclovir]", "values": [{"measurement": "Reversal of cisplatin-induced peripheral neuropathy", "setting": "senescent cells", "result": "reversed cisplatin-induced peripheral neuropathy (CIPN)"}]}
{"smiles": "CC1(C)CCC(c2ccc(Cl)cc2)=C(CN2CCN(c3ccc(C(=O)NS(=O)(=O)c4ccc(N[C@H](CCN5CCN(C(=O)CCCn6cc(COCCOCCNc7cccc8c7C(=O)N(C7CCC(=O)NC7=O)C8=O)nn6)CC5)CSc5ccccc5)c(S(=O)(=O)C(F)(F)F)c4)cc3)CC2)C1", "note": "(stereo partly drawn) [PZ-15227, 4-(4-((4′-chloro-4,4-dimethyl-3,4,5,6-tetrahydro-[1,1′-biphenyl]-2-yl)methyl)piperazin-1-yl)-N-((4-(((2R)-4-(4-(4-(4-((2-(2-((2-(2,6-dioxopiperidin-3-yl)-1,3-dioxoisoindolin-4-yl)amino)ethoxy)ethoxy)methyl)-1H-1,2,3-triazol-1-yl)butanoyl)piperazin-1-yl)-1-(phenylthio)butan-2-yl)amino)-3-((trifluoromethyl)sulfonyl)phenyl)sulfonyl)benzamide]", "values": [{"measurement": "EC50", "setting": "NCI-H146 cancer cells; Homo sapiens", "result": 0.0689, "unit": "µM"}, {"measurement": "EC50", "setting": "RS4; 11 cancer cells; Homo sapiens", "result": 0.114, "unit": "µM"}, {"measurement": "EC50", "setting": "[1]; Homo sapiens, WI-38", "result": 0.108, "unit": "µM"}, {"measurement": "Ratio NSC/SC", "setting": "[1]", "result": ">92"}, {"measurement": "EC50", "setting": "Normal WI38 (NSC); [3]", "result": "> 10", "unit": "µM"}]}
{"smiles": "CC1(C)CCC(CN2CCN(c3ccc(C(=O)NS(=O)(=O)c4ccc(NCC5CCN(C(=O)CCCn6cc(COCCOCCOCCNc7cccc8c7C(=O)N(C7CCC(=O)NC7=O)C8=O)nn6)CC5)c([N+](=O)[O-])c4)c(Oc4cnc5[nH]ccc5c4)c3)CC2)=C(c2ccc(Cl)cc2)C1", "note": "(stereo not shown) [XZ-14523, 2-((1H-pyrrolo[2,3-b]pyridin-5-yl)oxy)-4-(4-((4′-chloro-5,5-dimethyl-3,4,5,6-tetrahydro-[1,1′-biphenyl]-2-yl)methyl)piperazin-1-yl)-N-((4-(((1-(4-(4-((2-(2-(2-((2-(2,6-dioxopiperidin-3-yl)-1,3-dioxoisoindolin-4-14)amino)ethoxy)ethoxy)ethoxy)methyl)-1H-1,2,3-triazol-1-yl)butanoyl)piperidin-4-yl)methyl)amino)-3-nitrophenyl)sulfonyl)benzamide]", "values": [{"measurement": "EC50", "setting": "NCI-H146 cancer cells", "result": 1.26, "unit": "µM"}, {"measurement": "EC50", "setting": "RS4; 11 cancer cells", "result": 0.161, "unit": "µM"}, {"measurement": "EC50", "setting": "[1]", "result": "> 10", "unit": "µM"}, {"measurement": "EC50", "setting": "Normal WI38 (NSC); [2]", "result": "> 10", "unit": "µM"}]}
{"smiles": "CC1(C)CCC(c2ccc(Cl)cc2)=C(CN2CCN(c3ccc(C(=O)NS(=O)(=O)c4ccc(N[C@H](CCN5CCN(C(=O)COCCOCCOCCNc6cccc7c6C(=O)N(C6CCC(=O)NC6=O)C7=O)CC5)CSc5ccccc5)c(S(=O)(=O)C(F)(F)F)c4)cc3)CC2)C1", "note": "(stereo partly drawn) [XZ-14510, 4-(4-((4′-chloro-4,4-dimethyl-3,4,5,6-tetrahydro-[1,1′-biphenyl]-2-yl)methyl)piperazin-1-yl)-N-((4-(((2R)-4-(4-(2-(2-(2-(2-((2-(2,6-dioxopiperidin-3-yl)-1,3-dioxoisoindolin-4-yl)amino)ethoxy)ethoxy)ethoxy)acetyl)piperazin-1-yl)-1-(phenylthio)butan-2-yl)amino)-3-((trifluoromethyl)sulfonyl)phenyl)sulfonyl)benzamide]", "values": [{"measurement": "Ratio NSC/SC", "setting": "[1]", "result": ">56"}]}
